Assay results as given in patent publication US20250235547A1, “ANTIBODY-DRUG CONJUGATE” (UBE Corporation, priority 2022, published 2025).
Numbered stars: 1 amine (or outer) side, 2 acyl side, 3 side chain; on linkers, the order of the positions; unused ones are H or OH. Square brackets hold non-standard residues; d marks the D form. Peptide text beside a SMILES is read from it. * marks the point of attachment. X4 = COC(=O)C1OC(O[C@@H](c2ccccc2)[C@@H](C)N*)C(OC(C)=O)C(OC(C)=O)C1OC(C)=O; Dolaproine = CO[C@@H]([C@@H]1CCCN1)[C@@H](C)C(=O)O; Hexanoyl(6-maleimido) = O=C1C=CC(=O)N1CCCCCC(=O)*; Propanoyl(3-maleimido) = O=C1C=CC(=O)N1CCC(=O)*; Dil = CC[C@H](C)[C@H](NC)[C@@H](CC(=O)O)OC; X3 = C[C@@H](N*)[C@@H](OP(=O)(O)O)c1ccccc1; PABC = O=C(OCc1ccc(N[*:1])cc1)[*:2]; X1 = C[C@@H](N*)[C@@H](O)c1ccccc1; hSer(lactone) = O=C1OCC[C@@H]1N*; Cit = NC(=O)NCCC[C@H](N)C(=O)O; PEG4 = NCCOCCOCCOCCOCCC(=O)O; NMeV = CN[C@H](C(=O)O)C(C)C

Target: T1, porcine tubulin (Sus scrofa, UniProt P02550+P02554)
T1 construct: purchased Cytoskeleton, Inc. BK011P
Experiment: Tubulin polymerization inhibition test
Type: biochemical
Conditions: fluorescence, 37° C., 60 minutes
Procedure: For measuring the tubulin polymerization inhibitory action, Tubulin Polymerization Assay Kit (manufactured by Cytoskeleton, Inc., BK011P) was used. A PIPES buffer containing porcine tubulin, GTP, MgCl2, EGTA, Glycerol, and a fluorescent reporter was prepared under ice-cooling as a reaction solution. The reaction solution was ice-cooled until it was used. A test compound solution was prepared by an aqueous solution containing 1.5% DMSO, and added to a 96 well plate (manufactured by Corning Inc., 3686) at 5 μL/well. The reaction solution was added thereto at 50 μL/well, the plate was placed in a microplate reader (FlexStation 3, manufactured by Molecular Device, LLC) in which the internal temperature was set to 37° C. in advance, and the fluorescence intensity measurement (excitation wavelength: 360 nm, detection wavelength: 420 nm) of each well was started. The fluorescence intensity was measured once every minute, and the measurement was continued for 60 minutes.
The tubulin polymerization inhibition rate (%) was calculated by the following equation.
Amount of fluorescence intensity increase: (average fluorescence intensity after 51 to 60 minutes from measurement start)−(average fluorescence intensity after 1 to 6 minutes from measurement start)

T1 sequence (P02554 whole entry): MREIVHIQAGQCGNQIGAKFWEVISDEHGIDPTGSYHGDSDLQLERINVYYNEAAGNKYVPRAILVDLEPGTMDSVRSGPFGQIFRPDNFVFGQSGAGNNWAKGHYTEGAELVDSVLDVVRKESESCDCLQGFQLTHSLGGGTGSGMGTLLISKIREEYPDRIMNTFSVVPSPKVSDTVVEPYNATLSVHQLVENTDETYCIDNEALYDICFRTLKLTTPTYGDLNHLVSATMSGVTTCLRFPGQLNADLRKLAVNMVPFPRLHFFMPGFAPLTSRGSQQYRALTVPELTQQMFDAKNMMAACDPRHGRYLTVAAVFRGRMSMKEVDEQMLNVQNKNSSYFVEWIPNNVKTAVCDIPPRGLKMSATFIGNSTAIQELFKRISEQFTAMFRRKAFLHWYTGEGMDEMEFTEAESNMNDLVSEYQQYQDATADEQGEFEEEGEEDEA
T1 sequence (P02550 whole entry): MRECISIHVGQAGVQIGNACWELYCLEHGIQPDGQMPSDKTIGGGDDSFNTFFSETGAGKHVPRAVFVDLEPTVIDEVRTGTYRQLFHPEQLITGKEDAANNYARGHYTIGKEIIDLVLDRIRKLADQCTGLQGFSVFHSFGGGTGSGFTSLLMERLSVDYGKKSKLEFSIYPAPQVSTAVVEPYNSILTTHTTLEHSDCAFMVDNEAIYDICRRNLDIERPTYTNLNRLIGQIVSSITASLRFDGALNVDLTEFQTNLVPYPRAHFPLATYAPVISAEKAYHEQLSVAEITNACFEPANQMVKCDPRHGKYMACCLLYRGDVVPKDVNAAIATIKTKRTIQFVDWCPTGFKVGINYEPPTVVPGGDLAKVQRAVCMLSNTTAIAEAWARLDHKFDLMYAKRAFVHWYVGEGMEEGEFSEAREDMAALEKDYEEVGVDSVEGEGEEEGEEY

Structure (SMILES) | IC50
CC[C@H](C)[C@@H]([C@@H](CC(=O)N1CCC[C@H]1[C@H](OC)[C@@H](C)C(=O)N[C@H](C)[C@@H](O)c1ccccc1)OC)N(C)C(=O)[C@@H](NC(=O)[C@H](C(C)C)N(C)Cc1cc([N+](=O)[O-])ccc1F)C(C)C [Example U-008] | ≤ 3 µM
CC[C@H](C)[C@@H]([C@@H](CC(=O)N1CCC[C@H]1[C@H](OC)[C@@H](C)C(=O)N[C@H](C)[C@@H](OC1OC(C(=O)OC)C(OC(C)=O)C(OC(C)=O)C1OC(C)=O)c1ccccc1)OC)N(C)C(=O)[C@@H](NC(=O)[C@@H](NC)C(C)C)C(C)C (some centres unmarked) [Example U-014] (H-[NMeV]V[Dil][Dolaproine]-X4) | ≤ 3 µM

Tested on: not listed separately
Experiment: Retention time in HPLC of reactive precursor (index of hydrophilicity)
Type: physicochemical
Conditions: BEH C18, 0.1% formic acid water/acetonitrile gradient, 40° C.
Procedure: As an index of hydrophilicity of the reactive precursor (Compound (III)), the retention time (RT) in HPLC analysis was measured, and compared.

Structure (SMILES) | Retention time in HPLC measurement
CC[C@H](C)[C@@H]([C@@H](CC(=O)N1CCC[C@H]1C(OC)[C@@H](C)C(=O)N[C@H](C)[C@@H](O)c1ccccc1)OC)N(C)C(=O)[C@@H](NC(=O)[C@H](C(C)C)N(C)C(=O)OCc1ccc(NC(=O)[C@H](CCCNC(N)=O)NC(=O)[C@@H](NC(=O)[C@H](CC(=O)NC2CCOC2=O)NC(=O)[C@H](CC(=O)N[C@H]2CCOC2=O)NC(=O)[C@H](CC(=O)N[C@H]2CCOC2=O)NC(=O)[C@H](CC(=O)N[C@H]2CCOC2=O)NC(=O)[C@H](CC(=O)NC2CCOC2=O)NC(=O)CCOCCOCCOCCOCCNC(=O)CCN2C(=O)C=CC2=O)C(C)C)cc1)C(C)C (stereo in doubt) [Reference Example 6] | 1.09 min
CC[C@H](C)[C@@H]([C@@H](CC(=O)N1CCC[C@H]1[C@H](OC)[C@@H](C)C(=O)N[C@H](C)[C@@H](O)c1ccccc1)OC)N(C)C(=O)[C@@H](NC(=O)[C@H](C(C)C)N(C)C(=O)OCc1ccc(NC(=O)[C@H](CCCNC(N)=O)NC(=O)[C@@H](NC(=O)CCCCCN2C(=O)C=CC2=O)C(C)C)cc1)C(C)C [MC-Val-Cit-PAB-MMAE, reference compound] ({Hexanoyl(6-maleimido)}-V[Cit][PABC][NMeV]V[Dil][Dolaproine]-X1) | 1.24 min
C=C1C[C@@H]2CC[C@@]34C[C@H]5O[C@H]6[C@@H](O3)[C@H]3O[C@H](CC[C@@H]3O[C@H]6[C@H]5O4)CC(=O)C[C@@H]3[C@@H](OC)[C@@H](C[C@H](O)CNC(=O)OCc4ccc(NC(=O)[C@H](CCCNC(N)=O)NC(=O)[C@@H](NC(=O)CCOCCOCCN5C(=O)C=CC5=O)C(C)C)cc4)O[C@H]3C[C@H]3O[C@@H](CC[C@@H]1O2)C[C@@H](C)C3=C [Mal-PEG2-Val-Cit-PAB-Eribulin, reference compound] | 1.19 min
CC[C@H](C)[C@@H]([C@@H](CC(=O)N1CCC[C@H]1[C@H](OC)[C@@H](C)C(=O)N[C@H](C)[C@@H](OP(=O)(O)O)c1ccccc1)OC)N(C)C(=O)[C@@H](NC(=O)[C@H](C(C)C)N(C)C(=O)OCc1ccc(NC(=O)[C@H](CCCNC(N)=O)NC(=O)[C@@H](NC(=O)[C@H](CC(=O)N[C@H]2CCOC2=O)NC(=O)CCOCCOCCOCCOCCNC(=O)CCN2C(=O)C=CC2=O)C(C)C)cc1)C(C)C [Reference Example 2] ({Propanoyl(3-maleimido)-PEG4}-D(hSer(lactone))V[Cit][PABC][NMeV]V[Dil][Dolaproine]-X3) | 0.96 min
CC[C@H](C)[C@@H]([C@@H](CC(=O)N1CCC[C@H]1[C@H](OC)[C@@H](C)C(=O)N[C@H](C)[C@@H](OP(=O)(O)OCc1ccc(NC(=O)[C@H](CCCNC(N)=O)NC(=O)[C@@H](NC(=O)[C@H](CC(=O)N[C@H]2CCOC2=O)NC(=O)CCOCCOCCOCCOCCNC(=O)[C@H](CNC(=O)CCP(=O)(O)O)N2C(=O)C=CC2=O)C(C)C)cc1)c1ccccc1)OC)N(C)C(=O)[C@@H](NC(=O)[C@H](C(C)C)N(C)C)C(C)C [Reference Example 3] | 0.70 min
C=C1C[C@@H]2CC[C@@]34C[C@H]5O[C@H]6[C@@H](O3)[C@H]3O[C@H](CC[C@@H]3O[C@H]6[C@H]5O4)CC(=O)C[C@@H]3[C@@H](OC)[C@@H](C[C@@H](CCNC(=O)OCc4ccc(NC(=O)[C@H](CCCNC(N)=O)NC(=O)[C@@H](NC(=O)[C@H](CC(=O)N[C@H]5CCOC5=O)NC(=O)CCOCCOCCOCCOCCNC(=O)[C@H](CNC(=O)CCP(=O)(O)O)N5C(=O)C=CC5=O)C(C)C)cc4)OP(=O)(O)O)O[C@H]3C[C@H]3O[C@@H](CC[C@@H]1O2)C[C@@H](C)C3=C [Reference Example 26] | 0.91 min
